Assay results as given in patent US20080249061A1, “Photostable Pharmaceutical Composition Containing Brivudine for the Treatment of Herpetic Keratitis” (priority 2005, published 2008).
Several values for one entry are separate records, joined by “and”; a condition that tells them apart may be missing. Identical values can stand only once.

Tests used:
[1] = test system: clinical VZV strains; conditions: 13 clinical VZV strains; cited from earlier work
[2] = Photostability test (SUNTEST CPS+, 320-800 nm); format: physicochemical; conditions: after irradiation of one hour, no film former contained
Method: The photo stability tests themselves have been performed using a SUNTEST CPS+ instrument of the company Atlas. The applied irradiation energy is indicated below: • Irradiation energy (time): 1.3 J/cm^2 (10 min), 2.6 J/cm^2 (20 min), 4.0 J/cm^2 (30 min), 8.9 J/cm^2 (67 min), 26.7 J/cm^2 (201 min) • Wave length range: 320-800 nm

[3] = additional studies on drug product-tolerability; format: in vivo
Source text: Formulations based on film formers are commonly used as artificial tear drops. They are approved since decades without any general or special adverse effects published.

[4] = test system: clinical HSV-1 strains; conditions: panel of 23 clinical HSV-1 strains; cited from earlier work
[5] = intra ocular bioavailability study in rabbit
[6] = test system: clinical isolates (HSV-1); conditions: panel of 20 clinical isolates, two similar assays; cited from earlier work

Structure (SMILES)	mean IC50 [1]	starting amount of brivudine recovered [2]	influence of brivudine on the drug product-tolerability ([3]; formulations based on film formers)	systemic absorption in the blood ([3]; in vivo)	time brivudine remains in the ocular region ([3]; ocular region, other: ophthalmic (topical ocular))	mean IC50 [4]	active in blood [5]	presence of the active substance in the cornea [5]	mean IC50 [6]
O=c1[nH]c(=O)n([C@H]2C[C@H](O)[C@@H](CO)O2)cc1/C=C/Br [brivudine, (E)-5-(2-bromovinyl)-2′-deoxyuridine]	0.001 µg/mL	33.4%	no deterioration of the pharmaceutical properties was observed	without systemic absorption in the blood	more than 2 hours	0.52 µg/mL	never found in blood	≥ 6 h	
Nc1nc2c(ncn2COCCO)c(=O)[nH]1 [acyclovir]	0.2 µg/mL					0.92 µg/mL			
Nc1nc2c(ncn2CCC(CO)CO)c(=O)[nH]1 [penciclovir]	0.91 µg/mL								0.6 µg/mL and 0.8 µg/mL
